Experimental data: patent publication US4226610A, “Herbicidal compounds, preparation thereof and herbicides containing the same” (Meiji Selka Kaisha, Ltd., priority 1978, dated 1980)
Structures can show the parent of a compound that is named as a salt.

How the values were obtained:
[1] = test system: torch azalea; experiment: Experiment 3 foliar application to naturally growing shrubs; format: in vivo, Rhododendoron Kaempferi Planch.; conditions: after 3 months
Method in brief: (§1)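 Sprays contained 0.1% octylphenyl polyoxyethanol and compound diluted to prescribed concentrations. They were applied to the leaves of wild shrubs at a rate of 150 liter per 10 are. Damage was rated 0–5 after one and three months, and regrowth − to +++ after three months.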

[2] = test system: eulalia; experiment: Experiment 2 foliar application in Japanese cypress afforested land; format: in vivo, Miscanthus sinensis Andress.; set-up: key: 0 = no effect, 5 = death; conditions: 0.125%; after 30 days; monosodium salt
Method: (§2) The detail of the assessment made in the following Experiments of the invention was as follows:
(§3) The compounds of the invention and other compounds listed in Table 4. were diluted to prescribed concentrations and sprayed to shrubs by foliar application in a Japanese cypress afforested land in an amount of 150 liter per 10 are.
(§4) After 30 days and 3 months, the killing index (0, no effect; 5, death) was determined.
(§5) The heights of plants were 50-70 cm. for Japanese cypress, about 50 cm. for chestnut, 50-90 cm. for miyakozasa, about 100 cm. for eulalia and 70-100 cm. for kumaichigo, respectively.

[3] = test system: hedge bindweed; experiment: Experiment 1 foliar application to naturally growing weeds; format: in vivo, Calystegis hederacea Wall.; conditions: 4 months, monosodium salt
Method in brief: (§6)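 Read-outs were a 0–5 killing index at 21 days and a reproduction score from (-), no reproduction, to (+++), no suppression. Reproduction was read at 2 months for cockspar grass and 4 months for the other species, after foliar spraying at 150 liter per 10 are with 0.1% surfactant.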

[4] = test system: water hyacinth; experiment: Experiment 5 foliar application to water hyacinths; format: in vivo, Eichhornia crassipes Solms; conditions: 3 months, listed as DL-AMPB monosodium salt, monosodium salt
Description: as §2
Four months after treatment, evaluation was made for inhibition of reproduction expressed in terms of symbols ranging from (-) to (+++) where (-) means no reproduction, namely complete suppression of reproduction, (±) remarkable suppression of reproduction; (+) considerable suppression of reproduction; (++) medium supprestion of reproduction; and (+++) no suppression of reproduction.
Water was placed in 20 cm.×30 cm. plastic vessels and a liquid fertilizer was added thereto. Two water hyacinths were floated in each vessel.
0.1 or 0.2% aqueous solutions of each of the compounds of the invention listed in Table 7 were sprayed by foliar application in an amount of 100 liter per 10 are. As a surfactant, 0.1% of octylphenyl polyoxyethanol was added.
The killing index (0, no effect; 5, death) after 21 days and 3 months, and the reproduction-inhibiting effect (-, no reproduction; +++, maximum reproduction) after 3 months were determined.

[5] = test system: yamazakura; experiment: Experiment 3 foliar application to naturally growing shrubs; format: in vivo, Prunus donarium Sieb. var. spontanae Makino; conditions: after 3 months
Method in brief: as §1

[6] = test system: warunasubi; experiment: Experiment 1 foliar application to naturally growing weeds; format: in vivo, Solanum carolinensis L.; conditions: 4 months, monosodium salt
Method in brief: (§7)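 Test compounds, diluted to prescribed concentrations with 0.1% octylphenyl polyoxyethanol surfactant, were sprayed onto foliage of naturally growing weeds at 150 liter per 10 are. Killing index (0, no effect; 5, death) was scored at 21 days. Reproduction was scored from (-), complete suppression, to (+++), none, at 2 months for cockspar grass and 4 months for the other weeds.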

[7] = test system: kumaichigo; experiment: Experiment 2 foliar application in Japanese cypress afforested land; format: in vivo, Rubus crataegifolius Bunge; conditions: 0.063%; after 30 days; monosodium salt
Method in brief: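 Field foliar spray on shrubs in Japanese cypress afforested land at 150 liter per 10 are, with compounds at prescribed concentrations. Killing index scored from 0 (no effect) to 5 (death) at 30 days and 3 months. Plant heights ranged from about 50 to 100 cm.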

[8] = test system: purple nutsedge; experiment: Experiment 1 foliar application to naturally growing weeds; format: in vivo, Cyperus rotundus L.; conditions: 4 months, monosodium salt
Method in brief: as §6

[9] = test system: Japanese prickly ash; experiment: Experiment 3 foliar application to naturally growing shrubs; format: in vivo, Xanthoxylum piperitum DC.; conditions: after 3 months
Method in brief: as §1

[10] = test system: oak; experiment: as above; format: in vivo, Quercus serrata Thunb; conditions: after 3 months
Method in brief: as §1

[11] = test system: kiichigo; experiment: as above; format: in vivo, Rubus palmatsu Thunb. forma coptophyllus Makino; conditions: after 3 months
Method in brief: as §1

[12] = test system: lace shrub; experiment: as above; format: in vivo, Stephanandra incisa Zabel; conditions: after 3 months
Method in brief: as §1

[13] = test system: manna grass; experiment: Experiment 1 foliar application to naturally growing weeds; format: in vivo, Digitaria adsceudes Henr.; conditions: monosodium salt; for Reproduction-inhibiting effect: 2 months
Method in brief: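 Dilute compounds to prescribed concentrations; add 0.1% octylphenyl polyoxyethanol; spray foliage of in-situ weeds at 150 liter per 10 are. Score killing 0–5 on day 21. Score reproduction (-) to (+++) at month 2 (cockspar grass) or month 4 (chigaya, azumanezasa, warunasubi).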

[14] = test system: azumanezasa; experiment: as above; format: in vivo, Pleioblastus Chino Makino; conditions: 4 months
Method in brief: as §7

[15] = test system: chestnut; experiment: Experiment 2 foliar application in Japanese cypress afforested land; format: in vivo, Castanea crenata Sieb et Zucc.; conditions: 0.063%; after 30 days; monosodium salt
Method: as §2, §3, §4, §5

[16] = test system: chigaya; experiment: Experiment 1 foliar application to naturally growing weeds; format: in vivo, Imperata cylindrica Beauv.; conditions: 4 months
Method in brief: as §7

[17] = test system: yabugarashi; experiment: as above; format: in vivo, Cayratia japonica Houtt.; conditions: 4 months, monosodium salt
Method in brief: as §6

[18] = test system: white clover; experiment: as above; format: in vivo, Trifolium repens L.; conditions: monosodium salt; for Reproduction-inhibiting effect: 4 months
Method in brief: as §6

[19] = test system: Japanese bush cranberry; experiment: Experiment 3 foliar application to naturally growing shrubs; format: in vivo, Viburnum dilatatum Thunb.; conditions: after 3 months
Method in brief: as §1

[20] = test system: cockspar grass; experiment: Experiment 1 foliar application to naturally growing weeds; format: in vivo, Echinochloa Crusgalli P. Beauv.; conditions: monosodium salt; for Reproduction-inhibiting effect: 2 months
Method in brief: as §7

`CP(=O)(O)CCC(N)C(=O)O` (racemic) [DL-2-Amino-4-methylphosphinobutanoic acid monosodium salt] was tested, and the Reproduction-inhibiting ([1]; 0.05%, monosodium salt) was “+++”, the Reproduction-inhibiting ([1]; 0.1%, monosodium salt) was “++” and the Reproduction-inhibiting ([1]; 0.2%) was “-”. The Killing index [2] was 2.5, the Reproduction-inhibiting effect ([3]; 0.05%) was “+++” and the Reproduction-inhibiting effect ([3]; 0.1%) was “+++”. For the same molecule, the Reproduction-inhibiting effect ([3]; 0.2%) was “+++”, the Reproduction-inhibiting effect ([4]; 0.1%) was “++” and the Reproduction-inhibiting effect ([4]; 0.2%) was “±”. The Reproduction-inhibiting ([5]; 0.05%, monosodium salt) was “+++”, the Reproduction-inhibiting ([5]; 0.1%, monosodium salt) was “++” and the Reproduction-inhibiting ([5]; 0.2%) was “-”. The Reproduction-inhibiting effect ([6]; 0.05%) was “+++”, the Reproduction-inhibiting effect ([6]; 0.1%) was “+++” and the Reproduction-inhibiting effect ([6]; 0.2%) was “+”. For the same molecule, the Killing index [7] was 1.5, the Reproduction-inhibiting effect ([8]; 0.05%) was “+++” and the Reproduction-inhibiting effect ([8]; 0.1%) was “+++”. The Reproduction-inhibiting effect ([8]; 0.2%) was “+”, the Reproduction-inhibiting ([9]; 0.05%, monosodium salt) was “+++” and the Reproduction-inhibiting ([9]; 0.1%, monosodium salt) was “++”. For the same molecule, the Reproduction-inhibiting ([9]; 0.2%) was “-”, the Reproduction-inhibiting ([10]; 0.05%, monosodium salt) was “+++” and the Reproduction-inhibiting ([10]; 0.1%, monosodium salt) was “++”. For the same molecule, the Reproduction-inhibiting ([10]; 0.2%) was “-”, the Reproduction-inhibiting ([11]; 0.05%, monosodium salt) was “+++” and the Reproduction-inhibiting ([11]; 0.1%, monosodium salt) was “++”. The Reproduction-inhibiting ([11]; 0.2%) was “-”, the Reproduction-inhibiting ([12]; 0.05%, monosodium salt) was “+++” and the Reproduction-inhibiting ([12]; 0.1%, monosodium salt) was “++”. The Reproduction-inhibiting ([12]; 0.2%) was “-”, the Reproduction-inhibiting effect ([13]; 0.05%) was “+++” and the Reproduction-inhibiting effect ([13]; 0.1%) was “++”. For the same molecule, the Reproduction-inhibiting effect ([13]; 0.2%) was “±”, the “Killing index of Upperground parts” value ([13]; 0.2%, 21 days) was 4.5 and the Reproduction-inhibiting effect ([14]; 0.05%, monosodium salt) was “+++”. For the same molecule, the Reproduction-inhibiting effect ([14]; 0.1%, monosodium salt) was “+”, the Reproduction-inhibiting effect ([14]; 0.2%) was “-” and the Killing index [15] was 0.5. For the same molecule, the Reproduction-inhibiting effect ([16]; 0.05%, monosodium salt) was “++”, the Reproduction-inhibiting effect ([16]; 0.1%, monosodium salt) was “++” and the Reproduction-inhibiting effect ([16]; 0.2%) was “-”. The Reproduction-inhibiting effect ([17]; 0.05%) was “+++”, the Reproduction-inhibiting effect ([17]; 0.1%) was “+++” and the Reproduction-inhibiting effect ([17]; 0.2%) was “++”. The Reproduction-inhibiting effect ([18]; 0.05%) was “+++”, the Reproduction-inhibiting effect ([18]; 0.1%) was “+++” and the Reproduction-inhibiting effect ([18]; 0.2%) was “+”. The “Killing index of Upperground parts” value ([18]; 0.2%, 21 days) was 4.5, the Reproduction-inhibiting ([19]; 0.05%) was “+++” and the Reproduction-inhibiting ([19]; 0.1%) was “++”. The Reproduction-inhibiting ([19]; 0.2%, monosodium salt) was “+ +”, the Reproduction-inhibiting effect ([20]; 0.05%) was “+ ++” and the Reproduction-inhibiting effect ([20]; 0.1%) was “++”. For the same molecule, the Reproduction-inhibiting effect ([20]; 0.2%) was “±” and the “Killing index of Upperground parts” value ([20]; 0.2%, 21 days) was 4.5.
